ChEMBL document CHEMBL1149588, “Inhibition of colon cancer cell growth and antioxidant activity of bioactive compounds from Poncirus trifoliata (L.) Raf” (Bioorg Med Chem, 2007)
The source made the active and inactive calls. The calls are words filed in the database; no cut-off is given here.

Experiments:
HT-29 [1] = assay: Induction of apoptosis in human HT29 cells at 5 uM; type: functional, cell-based
[2] = Growth inhibition of monkey COS1 cells at 2.5 uM after 48 hrs by MTT assay; type: cell-based, Macaca mulatta; conditions: rhesus monkey, cos-1, 48 h
[3] = Growth inhibition of monkey COS1 cells at 1.25 uM after 48 hrs by MTT assay; type: cell-based, Macaca mulatta; conditions: rhesus monkey, cos-1, 48 h
HT-29 [4] = assay: Antiproliferative activity against human HT29 cells at 5 uM after 24 hrs by MTT assay; type: functional, cell-based
[5] = Growth inhibition of monkey COS1 cells at 5 uM after 48 hrs by MTT assay; type: cell-based, Macaca mulatta; conditions: rhesus monkey, cos-1, 48 h
[6] = Growth inhibition of monkey COS1 cells at 0.63 uM after 48 hrs by MTT assay; type: cell-based, Macaca mulatta; conditions: rhesus monkey, cos-1, 48 h

| Structure (SMILES) | Activity (HT-29 [1]) | Activity [2] | Activity [3] | Activity (HT-29 [4]) | Activity [5] | Activity [6] |
| --- | --- | --- | --- | --- | --- | --- |
| COC(=O)C(O)(CC(=O)O)CC(=O)O | Active | Non-toxic | Non-toxic | Active | Non-toxic | Non-toxic |
| CC[C@@]1(O)C(=O)OCc2c1cc1n(c2=O)Cc2cc3ccccc3nc2-1 | Active |  |  |  |  |  |
| CCC(CC[C@@H](C)[C@H]1CC[C@H]2[C@@H]3CC=C4C[C@@H](O)CC[C@]4(C)[C@H]3CC[C@]12C)C(C)C (single isomer, unassigned) [BETA-SITOSTEROL] | Active | Non-toxic | Non-toxic | Active | Non-toxic | Non-toxic |
